Measurements as given in PMC2664537 (Journal of medicinal chemistry, 2008).
Blank lines part the entries; values can stand above or below the compound they belong to.

Columns and labels:
[1] = biological target: rhodopsin in urea-washed rod outer-segment membranes (MII state, R*) (Bos taurus, UniProt P02699); assay: extra MII stabilization assay; type: biochemical, bovine
[2] = solubility observed during assay preparation; type: physicochemical; settings: for solubility in buffer with 5% DMSO: after being dissolved in DMSO initially
[3] = biological target: R*-Gt interaction (photoactivated rhodopsin / transducin) (Bos taurus, UniProt P02699); assay: R*-Gt binding and release assay; set-up: species or system bovine
Chain of R*-Gt interaction (photoactivated rhodopsin / transducin) (P02699 whole entry): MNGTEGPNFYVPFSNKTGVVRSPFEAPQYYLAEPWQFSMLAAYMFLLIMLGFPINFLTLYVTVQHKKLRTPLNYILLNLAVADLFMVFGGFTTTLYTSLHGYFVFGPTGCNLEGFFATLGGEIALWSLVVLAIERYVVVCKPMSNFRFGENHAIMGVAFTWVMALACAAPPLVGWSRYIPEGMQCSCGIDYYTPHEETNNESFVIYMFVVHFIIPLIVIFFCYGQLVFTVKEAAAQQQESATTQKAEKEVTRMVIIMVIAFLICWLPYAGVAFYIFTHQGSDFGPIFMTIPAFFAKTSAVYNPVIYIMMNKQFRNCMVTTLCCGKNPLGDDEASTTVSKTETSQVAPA

Chain of rhodopsin in urea-washed rod outer-segment membranes (MII state, R*) (P02699 whole entry): as above

activity in extra MII assay using pure compound ([1]; pure compound): neither showed significant activity
Compound: CC1(C)[C@@H](O)CC[C@]2(C)[C@H]3C(=O)C=C4[C@@H]5C[C@@](C)(C(=O)O)CC[C@]5(C)CC[C@@]4(C)[C@]3(C)CC[C@@H]12 [Compound 12]

solubility in buffer with 5% DMSO [2]: soluble
EC50 [1]: 350 µM
IC50 [3]: 2000 µM
Compound: CC1(C)CC[C@]2(C(=O)O)CC[C@]3(C)C(=CC[C@@H]4[C@@]5(C)C[C@H](O)[C@H](O)[C@@](C)(C(=O)O)[C@@H]5CC[C@]43C)[C@@H]2C1 [Compound 16, medicagenic acid]

solubility in buffer with 5% DMSO [2]: soluble
Compound: C[C@H]1[C@H](C)CC[C@]2(C(=O)O)CC[C@]3(C)C(=CC[C@@H]4[C@@]5(C)C[C@@H](O)[C@H](O)[C@@](C)(CO)[C@@H]5[C@H](O)C[C@]43C)[C@H]12 [Compound 2, madecassic acid]

Compound: C[C@]12CC[C@H]3[C@@H](CCC4=CC(=O)CC[C@@]43C)[C@@H]1CC[C@@H]2C(=O)COS(=O)(=O)c1ccc(Br)cc1 [Compound 3]
solubility in buffer with 3% DMSO/3% butanol ([2]; dissolved in DMSO/butanol solution, then buffer added): remained soluble
